Results as given in PMC10733463, “Berberine-microbiota interplay: orchestrating gut health through modulation of the gut microbiota and metabolic transformation into bioactive metabolites” (Frontiers in Pharmacology, 2023).

Experiments:
Format in all cases: in vivo, Ross 308 broiler chickens
[1] = Bodyweight of broilers fed berberine-supplemented diet; conditions: 21 days post-hatch, n = 12
Description: The study was undertaken following the guidelines of the ethics committee of the Faculty of Veterinary Medicine and Bioscience Engineering, Ghent University, in accordance with the EU Directive 2010/63/EU. […] They were allotted into 4 groups, with three replicate pens per group each housing 8 chickens. The animals were not vaccinated. Water and commercial starter feed (day 1-12, FARM 1 Mash, Country's Best, […], Belgium) or grower (day 13-21, FARM 2 mash, Country's Best, […], Belgium) were provided ad libitum. […] At day 21, 4 birds per pen were weighted then euthanized by sodium pentobarbital injection for sampling. […] Additionally, ileal and caecal content samples were collected and stored at -20°C for berberine and berberine-derived metabolite quantification.

jejunal microbiota = assay: 16S rRNA gene sequencing, microbiota composition in the jejunum
caecal microbiota = assay: SCFA quantification (GC-FID) in caecal contents of chickens; conditions: high dose (1 g berberine/kg feed), 21 days; p = 0.045
Method: 250 mg caecal content derived from the in vivo trial were weighed and diluted 1:20 for SCFA analysis. Acetate, propionate and butyrate were quantified using the GC-FID method described by ([De […] et al., 2010]). This method involves the extraction of SCFA from samples with diethyl ether after the addition of 2-methyl hexanoic acid as an internal standard.

[2] = 0.1 g berberine/kg feed vs normal diet, 21 days, LinDA-normalized abundance
[3] = 0.1 g berberine/kg feed, 21 days
[4] = 0.5 g berberine/kg feed vs normal diet, 21 days, LinDA-normalized abundance
[5] = 0.5 g berberine/kg feed, 21 days
[6] = 1 g berberine/kg feed vs normal diet, 21 days, LinDA-normalized abundance

SMILES: COc1ccc2cc3[n+](cc2c1OC)CCc1cc2c(cc1-3)OCO2 [Berberine, Berberine chloride]
- Bodyweight ([1]; 0.1 g berberine/kg feed): 655 ± 76 g
- Bodyweight ([1]; 0.5 g berberine/kg feed): 703 ± 115 g
- Bodyweight ([1]; 1 g berberine/kg feed): 671 ± 55 g
- L2 FC Butyricicoccus, 0.1 vs 0 (jejunal microbiota; [2]): -2.02
- L2 FC Curtobacterium, 0.1 vs 0 (jejunal microbiota; [2]): -2.73
- L2 FC Gordonibacter, 0.1 vs 0 (jejunal microbiota; [2]): -2.71
- Mean relative abundance (%) Butyricicoccus (jejunal microbiota; [3]): 0.22%
- Mean relative abundance (%) Curtobacterium (jejunal microbiota; [3]): 0.01%
- Mean relative abundance (%) Gordonibacter (jejunal microbiota; [3]): 0.01%
- Mean relative abundance of Bacillaceae (jejunal microbiota; [3]): 0.03%
- Mean relative abundance of Burkholderiaceae (jejunal microbiota; [3]): 6.47%
- Mean relative abundance of Peptostreptococcaceae (jejunal microbiota; [3]): 6.37%
- Mean relative abundance of Pseudomonadaceae (jejunal microbiota; [3]): 1.71%
- Mean relative abundance of Ruminococcaceae (jejunal microbiota; [3]): 3.73%
- Mean relative abundance of uncultured bacterium family (Tenericutes, Mollicutes RF39) (jejunal microbiota; [3]): 0.01%
- L2FC of LinDA-normalized abundance of Bacillaceae (jejunal microbiota; 0.1 vs 0 g berberine/kg feed): 3.45
- L2FC of LinDA-normalized abundance of Burkholderiaceae (jejunal microbiota; 0.1 vs 0 g berberine/kg feed): 3.82
- L2FC of LinDA-normalized abundance of Peptostreptococcaceae (jejunal microbiota; 0.1 vs 0 g berberine/kg feed): 3.90
- L2FC of LinDA-normalized abundance of Pseudomonadaceae (jejunal microbiota; 0.1 vs 0 g berberine/kg feed): 3.67
- L2FC of LinDA-normalized abundance of Ruminococcaceae (jejunal microbiota; 0.1 vs 0 g berberine/kg feed): 2.19
- L2FC of LinDA-normalized abundance of uncultured bacterium family (Tenericutes, Mollicutes RF39) (jejunal microbiota; 0.1 vs 0 g berberine/kg feed): 2.35
- L2 FC Butyricicoccus, 0.5 vs 0 (jejunal microbiota; [4]): -0.78
- L2 FC Curtobacterium, 0.5 vs 0 (jejunal microbiota; [4]): -1.13
- L2 FC Gordonibacter, 0.5 vs 0 (jejunal microbiota; [4]): -2.33
- Mean relative abundance (%) Butyricicoccus (jejunal microbiota; [5]): 0.34%
- Mean relative abundance (%) Curtobacterium (jejunal microbiota; [5]): 0.03%
- Mean relative abundance (%) Gordonibacter (jejunal microbiota; [5]): 0.00%
- Mean relative abundance of Bacillaceae (jejunal microbiota; [5]): 0.04%
- Mean relative abundance of Burkholderiaceae (jejunal microbiota; [5]): 5.60%
- Mean relative abundance of Peptostreptococcaceae (jejunal microbiota; [5]): 0.52%
- Mean relative abundance of Pseudomonadaceae (jejunal microbiota; [5]): 0.35%
- Mean relative abundance of Ruminococcaceae (jejunal microbiota; [5]): 4.52%
- Mean relative abundance of uncultured bacterium family (Tenericutes, Mollicutes RF39) (jejunal microbiota; [5]): 0.02%
- L2FC of LinDA-normalized abundance of Bacillaceae (jejunal microbiota; 0.5 vs 0 g berberine/kg feed): 1.43
- L2FC of LinDA-normalized abundance of Burkholderiaceae (jejunal microbiota; 0.5 vs 0 g berberine/kg feed): 0.67
- L2FC of LinDA-normalized abundance of Peptostreptococcaceae (jejunal microbiota; 0.5 vs 0 g berberine/kg feed): -1.12
- L2FC of LinDA-normalized abundance of Pseudomonadaceae (jejunal microbiota; 0.5 vs 0 g berberine/kg feed): 0.14
- L2FC of LinDA-normalized abundance of Ruminococcaceae (jejunal microbiota; 0.5 vs 0 g berberine/kg feed): -0.14
- L2FC of LinDA-normalized abundance of uncultured bacterium family (Tenericutes, Mollicutes RF39) (jejunal microbiota; 0.5 vs 0 g berberine/kg feed): 0.60
- L2 FC Butyricicoccus, 1 vs 0 (jejunal microbiota; [6]): -0.38
- L2 FC Curtobacterium, 1 vs 0 (jejunal microbiota; [6]): -2.09
- L2 FC Gordonibacter, 1 vs 0 (jejunal microbiota; [6]): -1.79
- Mean relative abundance (%) Butyricicoccus (jejunal microbiota; 1 g berberine/kg feed, 21 days): 0.84%
- Mean relative abundance (%) Curtobacterium (jejunal microbiota; 1 g berberine/kg feed, 21 days): 0.06%
- Mean relative abundance (%) Gordonibacter (jejunal microbiota; 1 g berberine/kg feed, 21 days): 0.02%
- Mean relative abundance of Bacillaceae (jejunal microbiota; 1 g berberine/kg feed, 21 days): 0.04%
- Mean relative abundance of Burkholderiaceae (jejunal microbiota; 1 g berberine/kg feed, 21 days): 3.55%
- Mean relative abundance of Peptostreptococcaceae (jejunal microbiota; 1 g berberine/kg feed, 21 days): 0.26%
- Mean relative abundance of Pseudomonadaceae (jejunal microbiota; 1 g berberine/kg feed, 21 days): 0.35%
- Mean relative abundance of Ruminococcaceae (jejunal microbiota; 1 g berberine/kg feed, 21 days): 10.54%
- Mean relative abundance of uncultured bacterium family (Tenericutes, Mollicutes RF39) (jejunal microbiota; 1 g berberine/kg feed, 21 days): 0.00%
- L2FC of LinDA-normalized abundance of Bacillaceae (jejunal microbiota; 1 vs 0 g berberine/kg feed): 0.80
- L2FC of LinDA-normalized abundance of Burkholderiaceae (jejunal microbiota; 1 vs 0 g berberine/kg feed): 1.37
- L2FC of LinDA-normalized abundance of Peptostreptococcaceae (jejunal microbiota; 1 vs 0 g berberine/kg feed): -3.21
- L2FC of LinDA-normalized abundance of Pseudomonadaceae (jejunal microbiota; 1 vs 0 g berberine/kg feed): 1.01
- L2FC of LinDA-normalized abundance of Ruminococcaceae (jejunal microbiota; 1 vs 0 g berberine/kg feed): 1.51
- L2FC of LinDA-normalized abundance of uncultured bacterium family (Tenericutes, Mollicutes RF39) (jejunal microbiota; 1 vs 0 g berberine/kg feed): 0.00
- Abundance of phylum Actinobacteria (jejunal microbiota; high dose (1 g/kg feed), p = 0.021): reduction
- Abundance of phylum Actinobacteria (jejunal microbiota; low dose (0.1 g/kg feed), p < 0.001): reduction
- Propionate in the caecum (GC-FID) (caecal microbiota): significantly increased
